In PubChem BioAssay AID1259407 (Chemical Carcinogenesis Research Information System (CCRIS), 2018) one finds mutagenic call data, which are given here for four compounds.

Activity calls are given as the source filed them. The rule behind the calls is not given here.

This data set relates to CCRIS mutagenicity, Ames/micronucleus/aberration tests. In words: CCRIS mutagenicity studies.

`CC(C)Oc1ccc2c(=O)c(-c3ccccc3)coc2c1`: the mutagenic call by setting is: (Test System: AMES SALMONELLA TYPHIMURIUM, Strain/Indicator: TA98, Metabolic Activation: NONE, Method: STANDARD PLATE) “inactive; negative”; (Test System: AMES SALMONELLA TYPHIMURIUM, Strain/Indicator: TA98, Metabolic Activation: S-9, Method: STANDARD PLATE) “inactive; negative”; (Test System: AMES SALMONELLA TYPHIMURIUM, Strain/Indicator: TA100, Metabolic Activation: NONE, Method: STANDARD PLATE) “inactive; negative”; (Test System: AMES SALMONELLA TYPHIMURIUM, Strain/Indicator: TA100, Metabolic Activation: S-9, Method: STANDARD PLATE) “inactive; negative”; (Test System: AMES SALMONELLA TYPHIMURIUM, Strain/Indicator: TA1535, Metabolic Activation: NONE, Method: STANDARD PLATE) “inactive; negative”; (Test System: AMES SALMONELLA TYPHIMURIUM, Strain/Indicator: TA1535, Metabolic Activation: S-9, Method: STANDARD PLATE) “inactive; negative”. In addition, the mutagenic call by setting is: (Test System: AMES SALMONELLA TYPHIMURIUM, Strain/Indicator: TA1537, Metabolic Activation: NONE, Method: STANDARD PLATE) “inactive; negative”; (Test System: AMES SALMONELLA TYPHIMURIUM, Strain/Indicator: TA1537, Metabolic Activation: S-9, Method: STANDARD PLATE) “inactive; negative”; (Test System: AMES SALMONELLA TYPHIMURIUM, Strain/Indicator: TA1538, Metabolic Activation: NONE, Method: STANDARD PLATE) “inactive; negative”; (Test System: AMES SALMONELLA TYPHIMURIUM, Strain/Indicator: TA1538, Metabolic Activation: S-9, Method: STANDARD PLATE) “inactive; negative”; (Test System: E. COLI, Strain/Indicator: WP2 UVRA, Metabolic Activation: NONE, Method: STANDARD PLATE) “inactive; negative”; (Test System: E. COLI, Strain/Indicator: WP2 UVRA, Metabolic Activation: S-9, Method: STANDARD PLATE) “inactive; negative”.

In the case of `O=[N+]([O-])c1ccc2c(c1)Cc1cc(O)ccc1-2`, the mutagenic call is, setting by setting: (Test System: AMES SALMONELLA TYPHIMURIUM, Strain/Indicator: TA98, Metabolic Activation: NONE, Method: PREINCUBATION) “active; positive”; (Test System: AMES SALMONELLA TYPHIMURIUM, Strain/Indicator: TA98, Metabolic Activation: S-9, Method: PREINCUBATION) “active; positive”.

On to `CCCCNN`, for which the mutagenic call is, setting by setting: (Test System: AMES SALMONELLA TYPHIMURIUM, Strain/Indicator: TA100, Metabolic Activation: NONE, Method: PREINCUBATION (11 HR GROWTH PERIOD FOR BACTERIA)) “active; positive”; (Test System: AMES SALMONELLA TYPHIMURIUM, Strain/Indicator: TA100, Metabolic Activation: RAT, LIVER, S-9, PCB, Method: PREINCUBATION (11 HR GROWTH PERIOD FOR BACTERIA)) “inactive; negative”; (Test System: AMES SALMONELLA TYPHIMURIUM, Strain/Indicator: TA102, Metabolic Activation: NONE, Method: PREINCUBATION (5 OR 7 HR GROWTH PERIOD FOR BACTERIA)) “active; positive”; (Test System: AMES SALMONELLA TYPHIMURIUM, Strain/Indicator: TA102, Metabolic Activation: RAT, LIVER, S-9, PCB, Method: PREINCUBATION (5 HR GROWTH PERIOD FOR BACTERIA)) “inactive; negative”; (Test System: AMES SALMONELLA TYPHIMURIUM, Strain/Indicator: TA102, Metabolic Activation: RAT, LIVER, S-9, PCB, Method: PREINCUBATION (7 HR GROWTH PERIOD FOR BACTERIA)) “active; positive”.

Turning to `C[n+]1ccccc1-c1cccc[n+]1C`, the mutagenic call by setting is: (Test System: AMES SALMONELLA TYPHIMURIUM, Strain/Indicator: TA97, Metabolic Activation: RAT, LIVER, S-9, PHENOBARBITAL, Method: STANDARD PLATE) “active; positive”; (Test System: AMES SALMONELLA TYPHIMURIUM, Strain/Indicator: TA98, Metabolic Activation: RAT, LIVER, S-9, PHENOBARBITAL, Method: STANDARD PLATE) “active; positive”; (Test System: AMES SALMONELLA TYPHIMURIUM, Strain/Indicator: TA100, Metabolic Activation: RAT, LIVER, S-9, PHENOBARBITAL, Method: STANDARD PLATE) “active; positive”; (Test System: AMES SALMONELLA TYPHIMURIUM, Strain/Indicator: TA1535, Metabolic Activation: RAT, LIVER, S-9, PHENOBARBITAL, Method: STANDARD PLATE) “inactive; negative”; (Test System: AMES SALMONELLA TYPHIMURIUM, Strain/Indicator: TA1537, Metabolic Activation: RAT, LIVER, S-9, PHENOBARBITAL, Method: STANDARD PLATE) “inactive; negative”; (Test System: AMES SALMONELLA TYPHIMURIUM, Strain/Indicator: TA1538, Metabolic Activation: RAT, LIVER, S-9, PHENOBARBITAL, Method: STANDARD PLATE) “inactive; negative”.
